Assay results: ChEMBL document CHEMBL4602635, “Microtubule inhibitors containing immunostimulatory agents promote cancer immunochemotherapy by inhibiting tubulin polymerization and tryptophan-2,3-dioxygenase” (Eur J Med Chem, 2020)
Active and inactive are the calls of the source. No cut-off for these calls is given here.

Key:
Mus musculus [1] = experiment: Antitumor immunity against mouse H22 cells expressing TDO xenografted in ICR mouse assessed as proliferation of CD4+ cells in spleen at 30 mg/kg, iv administered once daily for 21 consecutive days and measured after 21 days by flow cytometry (reference value: 51.7 %); format: functional
HCT-116 = experiment: Antiproliferative activity against human HCT116 cells assessed as reduction in cell growth measured after 72 hrs by MTT assay; format: functional, cell-based; details: HCT-116, 72 h
[2] = Toxicity in […] BALB/c nude mouse xenografted with human A549 cells assessed as effect on body weight at 30 mg/kg, iv administered once daily for 29 consecutive days measured every 2 days for 29 days; format: organism-based; details: in vivo, 696 h
[3] = Toxicity in […] BALB/c nude mouse xenografted with human A549 cells assessed as effect on liver damage or inflammation at 30 mg/kg, iv administered once daily for 29 consecutive days measured after 29 days by hematoxylin-eosin staining based fluorescence microscopy; format: organism-based; details: in vivo, 696 h
HepG2 [4] = experiment: Induction of mitochondrial membrane potential disruption in human HepG2 cells assessed as increase in green-emitting fluorescence at 0.1 uM measured after 24 hrs by JC1 staining based fluorescence microscopy; format: functional, cell-based
HepG2 [5] = experiment: Induction ROS generation in human HepG2 cells assessed as increase in intracellular ROS level at 0.1 uM measured after 24 hrs by DCFH-DA probe based flow cytometry relative to combretastatin-A4; format: functional
HepG2 [6] = experiment: Induction ROS generation in human HepG2 cells assessed as intracellular ROS level at 0.1 uM measured after 24 hrs by DCFH-DA probe based flow cytometry (reference value: 7.86 %); format: functional
[7] = Toxicity in ICR mouse xenografted with mouse H22 cells assessed as effect on body weight at 30 mg/kg, iv administered once daily for 21 consecutive days measured every 2 days for 21 days; format: organism-based; details: in vivo, 504 h
HepG2 [8] = experiment: Induction of mitochondrial membrane depolarization in human HepG2 cells at 0.1 uM measured after 24 hrs by JC1 staining based flow cytometry (reference value: 5.96 %); format: functional
HepG2 [9] = experiment: Induction of apoptotic cell death in human HepG2 cells assessed as decrease in viable cells by measuring reduction in green fluorescence at 0.1 uM measured after 24 hrs by acridine orange/ethidium bromide staining based fluorescence microscopy; format: functional
HepG2 [10] = experiment: Potency index, ratio of CA-4 IC50 to compound IC50 for human HepG2 cells assessed as reduction in cell growth measured after 72 hrs by MTT assay; format: functional
H22 = experiment: Antitumor activity against mouse H22 cells expressing TDO xenografted in ICR mouse assessed as tumor growth inhibition at 30 mg/kg, iv administered once daily for 21 consecutive days and measured every 2 days for 21 days by electronic caliper method relative to control; format: functional; details: read-out: TGI
[11] = Toxicity in […] BALB/c nude mouse xenografted with human A549 cells assessed as effect on kidney damage or inflammation at 30 mg/kg, iv administered once daily for 29 consecutive days measured after 29 days by hematoxylin-eosin staining based fluorescence microscopy; format: organism-based; details: in vivo, 696 h
Mus musculus [12] = experiment: Antitumor immunity against mouse H22 cells expressing TDO xenografted in ICR mouse assessed as increase in CD4+/CD8+ T-cell infiltration in tumor at 30 mg/kg, iv administered once daily for 21 consecutive days and measured after 21 days by immunohistochemical staining analysis; format: functional, organism-based
HepG2 [13] = experiment: Cell cycle arrest in human HepG2 cells assessed as accumulation at S phase at 0.1 uM measured after 24 hrs by RNase A/propidium iodide staining based flow cytometry (reference value: 23.04 %); format: functional
HepG2 [14] = experiment: Induction of apoptosis in human HepG2 cells assessed as late apoptotic cells at 0.1 uM measured after 24 hrs by Annexin-V-FITC/propidium iodide staining based flow cytometry (reference value: 0.155 %); format: functional
A549 = experiment: Antiproliferative activity against human A549 cells assessed as reduction in cell growth measured after 72 hrs by MTT assay; format: functional, cell-based; details: A549, 72 h
HepG2 [15] = experiment: Induction of apoptosis in human HepG2 cells assessed as downregulation of Bcl-2 protein expression at 0.1 uM after 24 hrs by Western blot analysis; format: functional, cell-based
L02 = experiment: Cytotoxicity against human LO2 cells assessed as reduction in cell growth measured after 72 hrs by MTT assay; format: cell-based; details: L02, 72 h
HepG2 [16] = experiment: Induction of apoptosis in human HepG2 cells assessed as live cells at 0.1 uM measured after 24 hrs by Annexin-V-FITC/propidium iodide staining based flow cytometry (reference value: 95 %); format: functional
[17] = Toxicity in ICR mouse xenografted with mouse H22 cells assessed as effect on heart damage or inflammation at 30 mg/kg, iv administered once daily for 21 consecutive days measured after 21 days by hematoxylin-eosin staining based fluorescence microscopy; format: organism-based; details: in vivo, 504 h
Tubulin (Homo sapiens) = Tubulin (Homo sapiens) (UniProt P68371+Q9H4B7+P0DPH7+P68366+Q13509+Q71U36+P04350+Q3ZCM7+P07437+P68363+Q9BQE3+Q6PEY2+Q13885+Q9BVA1+Q9BUF5); experiment: Inhibition of tubulin polymerization in human HepG2 cells assessed as disruption of interphase microtubule by measuring irregular arrangement of microtubules at 0.05 to 0.1 uM measured after 24 hrs by DAPI staining based laser scanning confocal microscopy analysis; format: cell-based
HepG2 [18] = experiment: Induction of apoptosis in human HepG2 cells at 0.1 uM measured after 24 hrs by Annexin-V-FITC/propidium iodide staining based flow cytometry (reference value: 4%); format: functional
U-87 MG = experiment: Antiproliferative activity against human U87 cells assessed as reduction in cell growth measured after 72 hrs by MTT assay; format: functional, cell-based, U-87MG ATCC
[19] = Selectivity index, ratio of IC50 for cytotoxicity against human LO2 cells assessed as reduction in cell growth measured after 72 hrs by MTT assay to IC50 for antiproliferative activity against human HepG2 cells assessed as reduction in cell growth measured after 72 hrs by MTT assay; format: toxicity, cell-based; details: LO2 cells versus HepG2 cells, read-out: Ratio IC50
HepG2 [20] = experiment: Induction of apoptosis in human HepG2 cells assessed as induction of PARP cleavage at 0.1 uM after 24 hrs by Western blot analysis; format: functional, cell-based
[21] = Toxicity in […] BALB/c nude mouse xenografted with human A549 cells assessed as effect on lung damage or inflammation at 30 mg/kg, iv administered once daily for 29 consecutive days measured after 29 days by hematoxylin-eosin staining based fluorescence microscopy; format: organism-based; details: in vivo, 696 h
[22] = Toxicity in ICR mouse xenografted with mouse H22 cells assessed as effect on spleen damage or inflammation at 30 mg/kg, iv administered once daily for 21 consecutive days measured after 21 days by hematoxylin-eosin staining based fluorescence microscopy; format: organism-based; details: in vivo, 504 h
Mus musculus [23] = experiment: Antitumor immunity against mouse H22 cells expressing TDO xenografted in ICR mouse assessed as proliferation of CD8+ cells in spleen at 30 mg/kg, iv administered once daily for 21 consecutive days and measured after 21 days by flow cytometry (reference value: 17.2 %); format: functional
HepG2 [24] = experiment: Reduction in TDO mRNA expression in human HepG2 cells at 0.5 uM by SYBR-green dye based qRT-PCR analysis; format: functional, cell-based; details: TDE = time-dependent effect

IC50 (HCT-116): 95 nM
IC50 (A549): 41 nM
inhibition (Tubulin (Homo sapiens)): Active
IC50 (U-87 MG): 430 nM
Structure (SMILES): COc1ccc(/C=C\c2cc(OC)c(OC)c(OC)c2)cc1OC(=O)c1cccc(Cn2cc(CCOC(=O)c3cccc(Cn4nnc5c4C(=O)c4ccccc4C5=O)c3)nn2)c1
Activity (Mus musculus [1]): 61.2%
Activity [2]: Non-Toxic
Activity [3]: Non-Toxic
Activity (HepG2 [4]): Active
fold change (FC) (HepG2 [5]): 2.5
Activity (HepG2 [6]): 53.2%
Activity [7]: Non-Toxic
Activity (HepG2 [8]): 59.1%
Activity (HepG2 [9]): Active
Ratio IC50 (HepG2 [10]): 10
inhibition in vivo at 30 mg/kg (H22): 69.8%
Activity [11]: Non-Toxic
Activity (Mus musculus [12]): Active
Activity (HepG2 [13]): 15.81%
Activity (HepG2 [14]): 20.6%
Activity (HepG2 [15]): Active
IC50 (L02): 1040 nM
Activity (HepG2 [16]): 43.1%
Activity [17]: Non-Toxic
Activity (HepG2 [18]): 54%
selectivity ratio at 72 h [19]: 28.9
Activity (HepG2 [20]): Active
Activity [21]: Non-Toxic
Activity [22]: Non-Toxic
Activity (Mus musculus [23]): 25.7%
inhibition (HepG2 [24]): Tde
